Assay results reported in patent US4132778A, “Antibiotic A-32887” (Eli Lilly and Company, priority 1977, dated 1979).

Columns and labels:
Bacillus subtilis [1] = test: Conventional disc-diffusion method, Table VIII; type: cell-based; conditions: each as Na-K salts
Experimental: (§1) The antimicrobial activity of two typical A-32887 acyl ester derivatives is compared with that of A-32887 (each as Na-K salts) in Table VIII. Activity against illustrative bacteria is measured by the conventional disc-diffusion method. In addition, the results of a conventional paper-disc agar-diffusion assay system (Plate Assay) against Bacillus subtilis ATCC 6633 are reported. […] The samples were assayed at 1 mg/ml.

Micrococcus lutea = test: Conventional disc-diffusion method, Table VIII; type: cell-based; conditions: each as Na-K salts
Experimental: as §1

Staphylococcus aureus = test: Conventional disc-diffusion method, Table VIII; type: cell-based; conditions: each as Na-K salts
Experimental: as §1

Bacillus subtilis [2] = test: Conventional disc-diffusion method, minimal media, Table VIII; type: cell-based; conditions: each as Na-K salts
[3] = tested on: type B influenza virus (Maryland, dog kidney); test: In vitro plaque suppression test; type: cell-based
[4] = Ion binding / ion transport (ionophore)
Excerpt: A-32887 can be used when the selective removal of particular cations is desired. Examples of such uses include the removal and recovery of silver ions from solutions in photography, the removal of toxic cations from industrial waste streams before such streams are discharged to the environment, and desalinization of sea water. A-32887 can be used as one component of an ion-specific electrode (O. Kedem, et al., U.S. Pat. No. 3,753,887, Aug. 21, 1973, Alkali metal specific measuring electrode). […] A-32887 can be used, therefore, as a component in a membrane used for the selective transport of cations against a concentration gradient. One potential application of this property is in recovery of heavy and precious metals on a commercial basis [see E. L. Cussler, D. F. Evans, and Sister M. A. Matesick, Science 172, 377 (1971)].

[5] = tested on: Transmissible Gastroenteritis virus; test: In vitro plaque suppression test
[6] = tested on: Infectious Canine Hepatitis virus; test: In vitro plaque suppression test

With `CO[C@H]1CC[C@H](OC2[C@@H](C)[C@@](C)(O)O[C@H]([C@H]3CC[C@H]([C@@H]4CC[C@H]([C@@]5(C)O[C@]6(O[C@H](C[C@@H]7O[C@](O)([C@@H](O)C(=O)O)[C@@H](C)[C@H](OC)[C@@]7(C)OC)C[C@@H](OC)[C@H]6C)[C@H](C)[C@H]5OC)O4)O3)[C@H]2C)O[C@@H]1C.[K+].[Na+]` (stereo partly drawn) [A-32887] the “activity by disc-diffusion, Bacillus subtilis” value (Bacillus subtilis [1]) was 18, the “activity by disc-diffusion, Micrococcus lutea” value (Micrococcus lutea) was 16 and the “activity by disc-diffusion, Staphylococcus aureus” value (Staphylococcus aureus) was 16. For the same compound, the “activity by disc-diffusion, Bacillus subtilis” value (Bacillus subtilis [2]) was 30, the antiviral activity [3] was “active” and the “cation permeability of natural and artificial membranes” value [4] was “alters the cation permeability of both natural and artificial membranes”. For the same compound, the “ion-binding and ion-transport properties” value [4] was “exhibits ion-binding and ion-transport properties”, the antiviral activity [5] was “active” and the antiviral activity [6] was “active”.
